Experiments:
[1] = Stability of calcitriol in Miglyol 812 (caprylic/capric triglycerides), HPLC assay against reference substance; assay type: physicochemical; details: 30 ppm in Miglyol 812 with 0.4% BHT
Excerpt: (§1) The following example describes the stability data for calcitriol in the various excipients preferred for the composition according to the invention, including caprylic/capric triglycerides and cetearyl isononanoate. Stability of calcitriol in Miglyol 812 (caprylic/capric triglycerides) Solution of calcitriol at 30 ppm in qs 100% of Miglyol 812 in the presence of 0.4% of BHT. Assaying technique by HPLC against reference substance. At the initial time (T0), it is considered that the composition contains 100% of calcitriol. Measured concentration of calcitriol as % relative to T0: […]

[2] = Stability of calcitriol in Cetiol SN (cetearyl isononanoate), HPLC assay against reference substance; assay type: physicochemical; details: 30 ppm in Cetiol SN with 0.4% BHT
Excerpt: as §1, with “Cetiol SN (cetearyl isononanoate)” for “Miglyol 812 (caprylic/capric triglycerides)”, “Cetiol SN (cetearyl isononanoate)” for “Miglyol 812”

Measured concentration of calcitriol as % relative to T0 ([1]; +4° C., T 2 weeks): 98.3% | Measured concentration of calcitriol as % relative to T0 ([1]; +4° C., T 4 weeks): 105.2% | Measured concentration of calcitriol as % relative to T0 ([1]; +40° C., T 2 weeks): 91% | Measured concentration of calcitriol as % relative to T0 ([1]; +40° C., T 4 weeks): 93.8% | Measured concentration of calcitriol as % relative to T0 ([1]; AT, T 2 weeks): 95.1% | Measured concentration of calcitriol as % relative to T0 ([1]; AT, T 4 weeks): 98.0% | Measured concentration of calcitriol as % relative to T0 ([2]; +4° C., T 2 weeks): 98.6% | Measured concentration of calcitriol as % relative to T0 ([2]; +4° C., T 4 weeks): 98.1% | Measured concentration of calcitriol as % relative to T0 ([2]; +40° C., T 2 weeks): 99.0% | Measured concentration of calcitriol as % relative to T0 ([2]; +40° C., T 4 weeks): 98.9% | Measured concentration of calcitriol as % relative to T0 ([2]; AT, T 2 weeks): 98.7% | Measured concentration of calcitriol as % relative to T0 ([2]; AT, T 4 weeks): 98.4%
Compound: C=C1/C(=C\C=C2/CCC[C@]3(C)[C@@H]([C@H](C)CCCC(C)(C)O)CC[C@@H]23)C[C@@H](O)C[C@@H]1O [calcitriol]
